Measured values as given in PubChem BioAssay (NCI).
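Abbreviation: GI50, concentration required for 50% inhibition of growth. TGI: total growth inhibition.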

Key:
Experiment in all cases: NCI tumour cell line growth inhibition, 384-well format
786-0 renal = tested on: 786-0 renal
A498 renal = tested on: A498 renal
A549 NSCLC = tested on: A549 NSCLC
BT-549 breast = tested on: BT-549 breast
CAKI-1 renal = tested on: CAKI-1 renal
COLO 205 colon = tested on: COLO 205 colon
EKVX NSCLC = tested on: EKVX NSCLC
HCC-2998 colon = tested on: HCC-2998 colon
HCT-116 colon = tested on: HCT-116 colon
HCT-15 colon = tested on: HCT-15 colon
HL-60(TB) leukemia = tested on: HL-60(TB) leukemia
HOP-62 NSCLC = tested on: HOP-62 NSCLC
HOP-92 NSCLC = tested on: HOP-92 NSCLC
HS 578T breast = tested on: HS 578T breast
HT29 colon = tested on: HT29 colon
IGROV1 ovarian = tested on: IGROV1 ovarian
K-562 leukemia = tested on: K-562 leukemia
KM12 colon = tested on: KM12 colon
LOX IMVI melanoma = tested on: LOX IMVI melanoma
MALME-3M melanoma = tested on: MALME-3M melanoma
MCF7 breast = tested on: MCF7 breast
MDA-MB-231 breast = tested on: MDA-MB-231 breast
MDA-MB-468 breast = tested on: MDA-MB-468 breast
MOLT-4 leukemia = tested on: MOLT-4 leukemia
NCI-H23 lung = tested on: NCI-H23 lung
NCI-H460 NSCLC = tested on: NCI-H460 NSCLC
OVCAR-3 ovarian = tested on: OVCAR-3 ovarian
OVCAR-4 ovarian = tested on: OVCAR-4 ovarian
OVCAR-5 ovarian = tested on: OVCAR-5 ovarian
OVCAR-8 ovarian = tested on: OVCAR-8 ovarian
RPMI-8226 leukemia = tested on: RPMI-8226 leukemia
SF-268 CNS = tested on: SF-268 CNS
SF-295 CNS = tested on: SF-295 CNS
SK-MEL-2 melanoma = tested on: SK-MEL-2 melanoma
SK-MEL-28 melanoma = tested on: SK-MEL-28 melanoma
SK-MEL-5 melanoma = tested on: SK-MEL-5 melanoma
SK-OV-3 ovarian = tested on: SK-OV-3 ovarian
SN12C renal = tested on: SN12C renal
SNB-19 CNS = tested on: SNB-19 CNS
SNB-75 CNS = tested on: SNB-75 CNS
SR leukemia = tested on: SR leukemia
SW-620 colon = tested on: SW-620 colon
T-47D breast = tested on: T-47D breast
TK-10 renal = tested on: TK-10 renal
UACC-257 melanoma = tested on: UACC-257 melanoma
UACC-62 melanoma = tested on: UACC-62 melanoma
UO-31 renal = tested on: UO-31 renal

c1cn2cc(-c3ccc4cn[nH]c4c3)nc(Nc3ccc(N4CCOCC4)cc3)c2n1 gave a GI50 ([…]-0 renal) of 8.76 µM, a TGI (786-0 renal) of 21.1 µM and a GI50 (A498 renal) of 3.26 µM. The TGI (A498 renal) was 16.6 µM, the GI50 (A549 NSCLC) was 17.1 µM and the TGI (A549 NSCLC) was greater than 53.8 µM. It also gave a GI50 (BT-549 breast) of 11.2 µM, a TGI (BT-549 breast) of 23.5 µM and a GI50 (CAKI-1 renal) of 11.9 µM. The TGI (CAKI-1 renal) was 25.3 µM, the GI50 (COLO 205 colon) was 37.8 µM and the TGI (COLO 205 colon) was greater than 100 µM. For the same compound, the GI50 (EKVX NSCLC) was 9.48 µM, the TGI (EKVX NSCLC) was 25.1 µM and the GI50 (HCC-2998 colon) was 17.5 µM. For the same compound, the TGI (HCC-2998 colon) was greater than 85.7 µM, the GI50 (HCT-116 colon) was 15 µM and the TGI (HCT-116 colon) was 34.3 µM. It also gave a GI50 (HCT-15 colon) of 19.4 µM, a TGI (HCT-15 colon) greater than 100 µM and a GI50 (HL-60(TB) leukemia) greater than 100 µM. The TGI (HL-60(TB) leukemia) was greater than 100 µM, the GI50 (HOP-62 NSCLC) was 9.54 µM and the TGI (HOP-62 NSCLC) was 22.2 µM. The GI50 (HOP-92 NSCLC) was 5.8 µM, the TGI (HOP-92 NSCLC) was 19.1 µM and the GI50 (HS 578T breast) was 1.87 µM. The TGI (HS 578T breast) was 8.11 µM, the GI50 (HT29 colon) was 28.1 µM and the TGI (HT29 colon) was greater than 100 µM. It also gave a GI50 (IGROV1 ovarian) of 14.1 µM, a TGI (IGROV1 ovarian) of 37.9 µM and a GI50 (K-562 leukemia) greater than 100 µM. It also gave a TGI (K-562 leukemia) greater than 100 µM, a GI50 (KM12 colon) of 0.527 µM and a TGI (KM12 colon) of 25 µM. For the same compound, the GI50 (LOX IMVI melanoma) was 15.4 µM, the TGI (LOX IMVI melanoma) was 36.6 µM and the GI50 (MALME-3M melanoma) was 6.24 µM. It also gave a TGI (MALME-3M melanoma) of 19.4 µM, a GI50 (MCF7 breast) of 8.62 µM and a TGI (MCF7 breast) of 30.2 µM. For the same compound, the GI50 (MDA-MB-231 breast) was 10.1 µM, the TGI (MDA-MB-231 breast) was 21.9 µM and the GI50 (MDA-MB-468 breast) was 16.1 µM. It also gave a TGI (MDA-MB-468 breast) of 57.1 µM, a GI50 (MOLT-4 leukemia) of 48 µM and a TGI (MOLT-4 leukemia) greater than 100 µM. For the same compound, the GI50 (NCI-H23 lung) was 10.8 µM, the TGI (NCI-H23 lung) was 25.7 µM and the GI50 (NCI-H460 NSCLC) was 11.1 µM. It also gave a TGI (NCI-H460 NSCLC) of 24.6 µM, a GI50 (OVCAR-3 ovarian) of 12.7 µM and a TGI (OVCAR-3 ovarian) of 28.3 µM. It also gave a GI50 (OVCAR-4 ovarian) of 6.52 µM, a TGI (OVCAR-4 ovarian) of 20 µM and a GI50 (OVCAR-5 ovarian) of 12.8 µM. The TGI (OVCAR-5 ovarian) was 30.3 µM, the GI50 (OVCAR-8 ovarian) was 4.82 µM and the TGI (OVCAR-8 ovarian) was 17.1 µM. It also gave a GI50 (RPMI-8226 leukemia) of 16.9 µM, a TGI (RPMI-8226 leukemia) greater than 58.6 µM and a GI50 (SF-268 CNS) of 4.45 µM. It also gave a TGI (SF-268 CNS) of 16.9 µM, a GI50 (SF-295 CNS) of 13.7 µM and a TGI (SF-295 CNS) of 27.4 µM. The GI50 (SK-MEL-2 melanoma) was 1.67 µM, the TGI (SK-MEL-2 melanoma) was 8.99 µM and the GI50 (SK-MEL-28 melanoma) was 12.4 µM. For the same compound, the TGI (SK-MEL-28 melanoma) was 29.6 µM, the GI50 (SK-MEL-5 melanoma) was 11.3 µM and the TGI (SK-MEL-5 melanoma) was 32.8 µM. The GI50 (SK-OV-3 ovarian) was 5.35 µM, the TGI (SK-OV-3 ovarian) was 19.3 µM and the GI50 (SN12C renal) was 10 µM. It also gave a TGI (SN12C renal) of 22.6 µM, a GI50 (SNB-19 CNS) of 8.81 µM and a TGI (SNB-19 CNS) of 21.4 µM. For the same compound, the GI50 (SNB-75 CNS) was 2.15 µM, the TGI (SNB-75 CNS) was 9.11 µM and the GI50 (SR leukemia) was 5.01 µM. The TGI (SR leukemia) was 14.5 µM, the GI50 (SW-620 colon) was 33.1 µM and the TGI (SW-620 colon) was greater than 100 µM. It also gave a GI50 (T-47D breast) of 3.73 µM, a TGI (T-47D breast) of 21.2 µM and a GI50 (TK-10 renal) of 5.67 µM. The TGI (TK-10 renal) was 22 µM, the GI50 (UACC-257 melanoma) was 11.5 µM and the TGI (UACC-257 melanoma) was 27.6 µM. It also gave a GI50 (UACC-62 melanoma) of 7.97 µM, a TGI (UACC-62 melanoma) of 20.9 µM and a GI50 (UO-31 renal) of 12.4 µM. For the same compound, the TGI (UO-31 renal) was 32 µM.
